Test results published in patent publication US10280159B2 (AbbVie Deutschland GmbH & Co. KG, priority 2015, dated 2019).
Counter-ions that a name gives are not always drawn.

Tests used:
Assay type in all cases: cell-based
human S1PR4 = biological target: T1, human S1PR4 (Homo sapiens, UniProt O95977); test: Intracellular Ca2+ release (FLIPR) agonist potency, S1P4; conditions: recombinant CHO-K1 cells expressing human S1PR4, aequorin, Gq/i5; Calcium 5 FLIPR; read-out: S1P4 EC50
T1 construct: host or cells: CHO-K1
T1 sequence (O95977 1-384): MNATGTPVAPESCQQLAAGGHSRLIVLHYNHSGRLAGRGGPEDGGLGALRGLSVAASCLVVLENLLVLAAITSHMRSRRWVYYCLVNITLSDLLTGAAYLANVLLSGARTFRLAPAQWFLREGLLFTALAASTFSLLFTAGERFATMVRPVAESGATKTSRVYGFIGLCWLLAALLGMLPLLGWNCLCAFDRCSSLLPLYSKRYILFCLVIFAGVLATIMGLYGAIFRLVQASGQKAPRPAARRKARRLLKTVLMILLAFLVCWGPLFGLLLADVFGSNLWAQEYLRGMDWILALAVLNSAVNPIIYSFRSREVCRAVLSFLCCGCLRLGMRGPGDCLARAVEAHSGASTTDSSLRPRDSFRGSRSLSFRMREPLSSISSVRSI
Procedure: (§1) Agonistic activity was measured using the method described below.
(§2) Intracellular Ca^2+ Release
(§3) Agonist potency and intrinsic activity was assessed by measurement of intracellular Ca^2+ release. Recombinant CHO-K1 cells (Euroscreen, Brussels, Belgium) expressing human S1PR5, S1PR1, S1PR3 or S1PR4 receptors, aequorin, and GTP binding protein Gq/i5 were cultured using a medium containing nutrient mixture F-12 Ham (Sigma-Aldrich) with 10% FBS, and 100 μg/mL gentamicin and equilibrated at 5% CO2.
(§4) Phospho-fingolimod was used as positive control. Antagonists were pre-incubated for 10 min with cells before addition of the agonist (phospho-fingolimod at EC80). Measurements were performed using a fluorometric imaging plate reader FLIPR®tetra (Molecular Devices). Agonist at the human S1P receptors were characterized by deducing EC50 (potency) values from a nonlinear fit to the measured fluorescence raw data after normalization to the reference agonist (phospho-fingolimod) curve.

human S1PR5 = biological target: T2, human S1PR5 (Homo sapiens, UniProt Q9H228); test: Intracellular Ca2+ release (FLIPR) agonist potency, S1P5; conditions: recombinant CHO-K1 cells expressing human S1PR5, aequorin, Gq/i5; Calcium 5 FLIPR; read-out: S1P5 EC50 range
T2 construct: host or cells: CHO-K1
T2 sequence (Q9H228 whole entry): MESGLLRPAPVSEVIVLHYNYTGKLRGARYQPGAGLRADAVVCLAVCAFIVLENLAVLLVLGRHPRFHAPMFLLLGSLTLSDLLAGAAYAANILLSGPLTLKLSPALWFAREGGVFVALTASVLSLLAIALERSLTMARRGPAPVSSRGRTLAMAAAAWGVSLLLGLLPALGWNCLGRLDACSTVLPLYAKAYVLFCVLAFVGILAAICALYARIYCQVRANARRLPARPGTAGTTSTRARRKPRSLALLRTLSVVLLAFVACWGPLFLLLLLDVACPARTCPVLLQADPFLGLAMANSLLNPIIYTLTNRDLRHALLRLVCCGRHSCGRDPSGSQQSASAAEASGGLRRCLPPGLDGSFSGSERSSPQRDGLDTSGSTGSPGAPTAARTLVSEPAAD
Procedure: as §1, §2, §3, §4

human S1PR1 = biological target: T3, human S1PR1 (Homo sapiens, UniProt P21453); test: Intracellular Ca2+ release (FLIPR) agonist potency, S1P1; conditions: recombinant CHO-K1 cells expressing human S1PR1, aequorin, Gq/i5; Calcium 5 FLIPR; read-out: S1P1 EC50
T3 construct: host or cells: CHO-K1
T3 sequence (P21453 whole entry): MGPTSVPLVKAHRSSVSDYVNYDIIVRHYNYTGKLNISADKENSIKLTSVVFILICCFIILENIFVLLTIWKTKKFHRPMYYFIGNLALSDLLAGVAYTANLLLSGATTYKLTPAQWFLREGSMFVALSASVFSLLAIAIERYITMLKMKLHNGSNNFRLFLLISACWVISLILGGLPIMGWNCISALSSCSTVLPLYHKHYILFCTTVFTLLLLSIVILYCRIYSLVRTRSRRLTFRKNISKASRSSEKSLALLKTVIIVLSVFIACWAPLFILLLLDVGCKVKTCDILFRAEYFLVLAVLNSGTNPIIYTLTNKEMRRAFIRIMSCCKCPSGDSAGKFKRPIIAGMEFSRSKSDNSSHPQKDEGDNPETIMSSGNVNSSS
Procedure: as §1, §2, §3, §4

Row | SMILES | EC50 (human S1PR4) [nM] | EC50 (human S1PR5) [nM] | EC50 (human S1PR1) [nM]
1 | COc1ccc(COc2ccc3c(c2)OCC(N2CC(C(=O)O)C2)C3)cc1F (stereo not drawn) [Compound 95, 1-[7-[(3-fluoro-4-methoxy-phenyl)methoxy]chroman-3-yl]azetidine-3-carboxylic acid] | > 1000 | 1000 to 10000 | > 1000
2 | CSc1ccc(COc2ccc3c(c2)CCC(OCCC(=O)O)C3)cc1 (stereo not drawn) [Compound 182, 3-[6-[(4-methylsulfanylphenyl)methoxy]tetralin-2-yl]oxypropanoic acid] | > 1000 | 1000 to 10000 | > 1000
3 | O=C(O)C1CN(C2COc3cc(OCC4CCC4)ccc3C2)C1 (stereo not drawn) [Compound 230, 1-[7-(cyclobutylmethoxy)chroman-3-yl]azetidine-3-carboxylic acid] | > 1000 | 1000 to 10000 | > 1000
4 | CC(C)C(NC1CCc2cc(OCc3c(Cl)cccc3Cl)ccc2C1)C(=O)O (stereo not drawn) [Compound 37, 2-((6-((2,6-dichlorobenzyl)oxy)-1,2,3,4-tetrahydronaphthalen-2-yl)amino)-3-methylbutanoic acid] | > 1000 | 100 to 1000 | > 1000
5 | Cc1ccc(F)c(COc2ccc3c(c2)CCC(OCC(=O)O)C3)c1 (stereo not drawn) [Compound 160, 2-[6-[(2-fluoro-5-methyl-phenyl)methoxy]tetralin-2-yl]oxyacetic acid] | > 1000 | 100 to 1000 | > 1000
6 | O=C(O)C1CN(C2COc3cc(OCc4cc(OC(F)(F)F)ccc4F)ccc3C2)C1 (stereo not drawn) [Compound 104, 1-[7-[[2-fluoro-5-(trifluoromethoxy)phenyl]methoxy]chroman-3-yl]azetidine-3-carboxylic acid] | > 1000 | 100 to 1000 | > 1000
7 | O=C(O)COC1CCc2cc(OCc3cccc(F)c3F)ccc2C1 (stereo not drawn) [Compound 204, 2-[6-[(2,3-difluorophenyl)methoxy]tetralin-2-yl]oxyacetic acid] | > 1000 | 1000 to 10000 | > 1000
8 | Cc1cc(F)cc(COc2ccc3c(c2)OCC(N2CC(C(=O)O)C2)C3)c1 (stereo not drawn) [Compound 87, 1-[7-[(3-fluoro-5-methyl-phenyl)methoxy]chroman-3-yl]azetidine-3-carboxylic acid] | > 1000 | 1000 to 10000 | > 1000
9 | COc1ccc(COc2ccc3c(c2)CCC(OCC(=O)O)C3)cc1 (stereo not drawn) [Compound 165, 2-[6-[(4-methoxyphenyl)methoxy]tetralin-2-yl]oxyacetic acid] | > 1000 | 1000 to 10000 | > 1000
10 | O=C(O)C1CN(C2COc3cc(OCc4ccc(C(F)(F)F)c(F)c4)ccc3C2)C1 (stereo not drawn) [Compound 103, 1-[7-[[3-fluoro-4-(trifluoromethyl)phenyl]methoxy]chroman-3-yl]azetidine-3-carboxylic acid] | > 1000 | 1000 to 10000 | > 1000
11 | O=C(O)CCOC1CCc2cc(OCc3ccc(F)cc3)ccc2C1 (stereo not drawn) [Compound 194, 3-[6-[(4-fluorophenyl)methoxy]tetralin-2-yl]oxypropanoic acid] | > 1000 | 1000 to 10000 | > 1000
12 | COc1cc(COc2ccc3c(c2)OCC(N2CC(C(=O)O)C2)C3)ccc1F (stereo not drawn) [Compound 92, 1-[7-[(4-fluoro-3-methoxy-phenyl)methoxy]chroman-3-yl]azetidine-3-carboxylic acid] | > 1000 | 1000 to 10000 | > 1000
13 | O=C(O)C1CCN(C2COc3cc(OCc4c(Cl)cccc4Cl)ccc3C2)CC1 (stereo not drawn) [Compound 110, 1-[7-[(2,6-dichlorophenyl)methoxy]chroman-3-yl]piperidine-4-carboxylic acid; Salt with 2,2,2-trifluoroacetic acid] | < 1000 | 10 to 100 | > 1000
14 | O=C(O)CNC1COc2cc(OCCc3c(Cl)cccc3Cl)ccc2C1 (stereo not drawn) [Compound 114, 2-[[7-[2-(2,6-dichlorophenyl)ethoxy]chroman-3-yl]amino]acetic acid] | > 1000 | 1000 to 10000 | > 1000
15 | O=C(O)C1CN(C2COc3cc(OCCCc4cccc(F)c4)ccc3C2)C1 (stereo not drawn) [Compound 99, 1-[7-[3-(3-fluorophenyl)propoxy]chroman-3-yl]azetidine-3-carboxylic acid] | > 1000 | 1000 to 10000 | > 1000
16 | CCc1cccc(Cl)c1COc1ccc2c(c1)OCC(NC1(CC(=O)O)CCCC1)C2 (stereo not drawn) [Compound 115, 2-(1-((7-((2-chloro-6-ethylbenzyl)oxy)chroman-3-yl)amino)cyclopentyl) acetic acid] | < 1000 | < 10 | > 1000
17 | CCc1cccc(F)c1COc1ccc2c(c1)OCC(NC1(CC(=O)O)CC1)C2 (stereo not drawn) [Compound 129, 2-(1-((7-((2-ethyl-6-fluorobenzyl)oxy)chroman-3-yl)amino)cyclopropyl) acetic acid] | > 1000 | < 10 | > 1000
18 | O=C(O)COC1CCc2cc(OCc3c(F)cccc3C(F)(F)F)ccc2C1 (stereo not drawn) [Compound 158, 2-[6-[[2-fluoro-6-(trifluoromethyl)phenyl]methoxy]tetralin-2-yl]oxyacetic acid] | > 1000 | 1000 to 10000 | > 1000
19 | O=C(O)CNC1COc2cc(OCc3ccc(OCc4cccc(Cl)c4)cc3)ccc2C1 (stereo not drawn) [Compound 132, (7-((4-((3-chlorobenzyl)oxy)benzyl)oxy)chroman-3-yl)glycine] | > 1000 | < 10 | > 1000
20 | O=C(O)CCOC1CCc2cc(OCc3ccc(OC(F)(F)F)cc3)ccc2C1 (stereo not drawn) [Compound 185, 3-[6-[[4-(trifluoromethoxy)phenyl]methoxy]tetralin-2-yl]oxypropanoic acid] | > 1000 | 1000 to 10000 | > 1000
21 | Cc1ccccc1COc1ccc2c(c1)CCC(OCCC(=O)O)C2 (stereo not drawn) [Compound 179, 3-[6-(o-tolylmethoxy)tetralin-2-yl]oxypropanoic acid] | > 1000 | 1000 to 10000 | > 1000
22 | O=C(O)COC1CCc2cc(OCc3ccccc3Cl)ccc2C1 (stereo not drawn) [Compound 206, 2-[6-[(2-chlorophenyl)methoxy]tetralin-2-yl]oxyacetic acid] | > 1000 | 1000 to 10000 | > 1000
23 | CN(CC(=O)O)C1COc2cc(OCc3ccc(OCc4cccc(F)c4F)cc3)ccc2C1 (stereo not drawn) [Compound 133, N-(7-((4-((2,3-difluorobenzyl)oxy)benzyl)oxy)chroman-3-yl)-N-methylglycine] | > 1000 | < 10 | < 1000
24 | Cc1cc(C)cc(COc2ccc3c(c2)CCC(OCC(=O)O)C3)c1 (stereo not drawn) [Compound 156, 2-[6-[(3,5-dimethylphenyl)methoxy]tetralin-2-yl]oxyacetic acid] | > 1000 | 1000 to 10000 | > 1000
25 | O=C(O)C1CN(C2COc3cc(OCC4CCCCC4)ccc3C2)C1 (stereo not drawn) [Compound 109, 1-[7-(cyclohexylmethoxy)chroman-3-yl]azetidine-3-carboxylic acid] | > 1000 | 100 to 1000 | > 1000
26 | O=C(O)CCOC1CCc2cc(OCc3cccc(F)c3F)ccc2C1 (stereo not drawn) [Compound 186, 3-[6-[(2,3-difluorophenyl)methoxy]tetralin-2-yl]oxypropanoic acid] | > 1000 | 1000 to 10000 | > 1000
